From patent US6239130A, “Phosphodiesterase 4-inhibiting diazepinoindolones” (Warner-Lambert Company, priority 1997, dated 2001) come the findings set out here.

The test system of the experiment is PDE4 enzyme of human origin. Kind of experiment: PDE4-inhibiting activity on an enzyme preparation obtained from the U937 cell line. In kind it is biochemical. The protocol:
In the case of the PDE4 enzymes, this value is compared with that of rolipram, a specific PDE4 inhibitor. […] Measurement of the enzyme activity of the different types of PDE, and especially of the PDE4 enzymes, is then carried out according to a method adapted from W. J. Thompson, ibidem.
As for `CCOC(=O)c1nc2cccc(Cl)c2c(=O)n1C1N=C(c2ccccc2)c2cc(C)cc3c2N(CC3)C1=O` (stereo not shown) [Example 15, Ethyl 5-chloro-3-(9-methyl-4-oxo-1-phenyl-3,4,6,7-tetrahydro-[1,4]diazepino[6,7,1-hi]indol-3-yl)-4oxo-3,4-dihydroquinazoline-2-carboxylate], the concentration for half-maximal inhibition (IC50) stood at 82 nM.
Consider `CCOC(=O)Cc1nc2ccccc2c(=O)n1C1N=C(c2ccccc2)c2cc(C)cc3c2N(CC3)C1=O` (stereo not shown) [Example 16, Ethyl [3-(9-methyl-4-oxo-1-phenyl-3,4,6,7-tetrahydro-[1,4]diazepino[6,7,1-hi]indol-3-yl)-4-oxo-3,4-dihydro-2-quinazolinyl]acetate], for which the IC50 came to 260 nM.
The molecule `COCc1nc2ccccc2c(=O)n1C1N=C(c2ccccc2)c2cc(C)cc3c2N(CC3)C1=O` (stereo not shown) [Example 17A, 9-Methyl-3-(2-methyloxymethyl-4-oxo-4H-quinazolin-3-yl)-1-phenyl-6,7-dihydro-3H-[1,4]diazepino[6,7,1-hi]indol-4-one] came in with an IC50 of 137 nM.
The molecule `Cc1cc2c3c(c1)C(c1ccccc1)=NC(n1c(CO)nc4ccccc4c1=O)C(=O)N3CC2` (stereo not shown) [Example 17B, 9-Methyl-3-(2-hydroxymethyl-4-oxo-4H-quinazolin-3-yl)-1-phenyl-6,7-dihydro-3H-[1,4]diazepino[6,7,1-hi]indol-4-one] registered an IC50 of 221 nM.
Under `Cc1cc2c3c(c1)C(c1ccccc1)=NC(n1c(COC(=O)CCC(=O)O)nc4ccccc4c1=O)C(=O)N3CC2` (stereo not shown) [Example 17C, [3-(9-Methyl-4-oxo-1-phenyl-3,4,6,7-tetrahydro-[1,4]diazepino[6,7,1-hi]indol-3-yl)-4-oxo-3,4-dihydroquinazolin-2-yl]methyl hydrogen succinate] stands 339 nM; under `COCCOCCOCC(=O)OCc1nc2ccccc2c(=O)n1C1N=C(c2ccccc2)c2cc(C)cc3c2N(CC3)C1=O` (stereo not shown) [Example 17D, [3-(9-Methyl-4-oxo-1-phenyl-3,4,6,7-tetrahydro-[1,4]diazepino[6,7,1-hi]iondol-3-yl)-4-oxo-3,4-dihydroquinazolin-2-yl]methanol [2-(2-methoxyethoxy)ethoxy]acetate], 286 nM; under `Cc1cc2c3c(c1)C(c1ccccc1)=NC(n1c(COC(=O)CCC(=O)NCCN4CCOCC4)nc4ccccc4c1=O)C(=O)N3CC2` (stereo not shown) [Example 17E, 3-(9-Methyl-4-oxo-1-phenyl-3,4,6,7-tetrahydro-[1,4]diazepino [6,7,1-hi]indol-3-yl)-4-oxo-3,4-dihydroquinazolin-2-ylmethyl N-(2-morpholin-4-ylethyl)succinamate], 222 nM.
In the case of `Cc1cc2c3c(c1)C(c1ccccc1)=NC(n1c(COC(=O)CCC(=O)OCCN4CCOCC4)nc4ccccc4c1=O)C(=O)N3CC2` (stereo not shown) [Example 17F, 3-(9-Methyl-4-oxo-1-phenyl-3,4,6,7-tetrahydro-[1,4]diazepino[6,7,1-hi]indol-3-yl)-4-oxo-3,4-dihydroquinazolin-2-ylmethyl 2-morpholin-4-ylethyl succinnate], 147 nM corresponded to half-maximal inhibition (IC50).
In turn, `COC(=O)[C@H](CCCCNC(=O)OC(C)(C)C)NC(=O)CCC(=O)OCc1nc2ccccc2c(=O)n1C1N=C(c2ccccc2)c2cc(C)cc3c2N(CC3)C1=O` (stereo partly shown) [Example 17G, Methyl 6-t-butoxycarbonylamino-2-{3-[3-(9-methyl-4-oxo-1-phenyl-3,4,6,7-tetrahydro-[1,4]diazepino[6,7,1-hi]indol-3-yl)-4-oxo-3,4-dihydroquinazolin-2-ylmethoxycarbonyl]propionylamino}hexanoate] displayed a half-maximal inhibitory concentration (IC50) of 516 nM.
For `CCOC(=O)CCc1nc2ccccc2c(=O)n1C1N=C(c2ccccc2)c2cc(C)cc3c2N(CC3)C1=O` (stereo not shown) [Example 17H, Ethyl 3-[3-(9-methyl 4oxo-1-phenyl-3,4,6,7-tetrahydro[1,4]diazepino[6,7,1-hi]indol-3-yl)-4-oxo-3,4-dihydroquinazolin-2-yl]propanoate], the IC50 amounted to 184 nM. This IC50 lies about 2.8-fold lower than the previous one.

As usually defined, the IC50 is the concentration that gives 50% inhibition.
